The source of these data is patent US20060213838A1, “Elution test method and apparatus” (SHIMADZU CORPORATION, priority 2005, published 2006).

Data set [1] can be described thus: change with time of residual concentration of specific component A in test liquid (HPLC). Format: physicochemical. The settings on record: 50 mM phosphoric acid buffer solution pH6.8, 37° C., initial 0.1 mg/mL. Here is the method:
The specific component A is an unstable pharmaceutical in an elution test under neutral condition and is sodium rabepranazole. The test liquid used to the elution test is a 50 mM phosphoric acid buffer solution (pH6.8, 37° C.) in order to neutralize the elution condition for the specific component A.

Data set [2] in a line: elution test of the preparation by absorbance measurement method. It is filed as physicochemical. The settings on record: preparation C containing impurity component B, six specimens. An excerpt:
The following describes a method for determining the specific component A alone while eliminating the influence of the impurity component B that hinders determination from the test liquid into which the specific component A and the impurity component B are eluted from the preparation C
The wavelengths to be set are 234 nm (λ1) and 287 nm (λ2) as isosbestic point wavelengths in a system including the specific component A and its decomposed matter in the preparation C. Assuming that the absorbances of the specific component A as A234nm(t) and A287nm(t) and the absorbances of the impurity component B as B234nm(t) and B287nm(t), the absorbances of the synthesis spectrum C234nm(t) and C287nm(t) will be represented as follows. C234nm(t)=A234nm(t)+B234nm(t) (3) C287nm(t)=A287nm(t)+B287nm(t) (4) Considering the spectrum of the impurity component B, the ratio of absorbance of the wavelengths of 234 nm and 287 nm is constant and independent of time (or concentration). This obtains the expression (5). B234nm(t)/B287nm(t)=k (5)
k and k′ are constants. From the absorbance measurement values at two isosbestic point wavelengths of the elution test liquid, the concentration of the specific component A alone is obtained by solving the simultaneous equation of the expression (7) and (8). […]

Where only a bound is given, the exact number is not on record here.

With `COCCCOc1ccnc(C[S+]([O-])c2nc3ccccc3[n-]2)c1C.[Na+]` (stereo not shown) [specific component A, sodium rabepranazole], the “time for residual concentration to decrease to half the initial concentration” value in data set [1] is at most 40 min. For the same molecule, the “residual concentration of the specific component A” value in data set [1] (within 40 minutes) is 0.05 mg/mL. Further, the elution ratio result in data set [2] (double-wavelength absorbance measurement method (234 nm and 287 nm)) was “around 100%”; in data set [2] (single-wavelength absorbance measurement method (234 nm)), 140%.
